Assay results from patent US10799494B2, “Combination of respiratory electron transport chain inhibitors with a cytochrome bd inhibitor” (priority 2015, dated 2020).
Several values for one entry are separate records, joined by “and”; a condition that tells them apart may be missing. Identical values can stand only once.

Target: recombinant M. tuberculosis bd-I (Mycobacterium tuberculosis, UniProt L7N662)
Experiment: Steady-state kinetics of quinol:Mtb bd-I activity with artificial quinol substrates
Conditions: not given

Sequence of recombinant M. tuberculosis bd-I (L7N662 1-485): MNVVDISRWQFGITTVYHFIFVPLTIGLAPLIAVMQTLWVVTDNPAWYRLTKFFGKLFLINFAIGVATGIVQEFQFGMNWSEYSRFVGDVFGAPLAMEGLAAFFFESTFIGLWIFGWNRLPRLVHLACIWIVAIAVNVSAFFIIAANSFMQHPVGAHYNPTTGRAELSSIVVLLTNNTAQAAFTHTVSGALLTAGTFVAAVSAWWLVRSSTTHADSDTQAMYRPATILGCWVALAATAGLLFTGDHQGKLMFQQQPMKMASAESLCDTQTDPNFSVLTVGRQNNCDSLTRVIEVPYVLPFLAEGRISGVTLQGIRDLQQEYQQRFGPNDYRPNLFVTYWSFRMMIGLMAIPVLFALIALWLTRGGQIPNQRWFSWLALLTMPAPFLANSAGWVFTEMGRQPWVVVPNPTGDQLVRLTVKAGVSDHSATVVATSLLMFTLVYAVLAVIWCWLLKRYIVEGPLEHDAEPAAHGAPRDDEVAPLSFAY

Row | Molecule | specific catalytic activity ± SEM
1 | COc1c(O)c(C)c(C/C=C(\C)CCC=C(C)C)c(O)c1OC [Compound Q2H2, ubiquinol-2] | 8.7 ± 2.5 µmol/min/mg
2 | CCCCCCCCCCc1c(C)c(O)c(OC)c(OC)c1O [dQH2, decylubiquinol] | 9.0 ± 0.2 µmol/min/mg and 5.1 ± 0.3 µmol/min/mg and 6.2 ± 0.5 µmol/min/mg

Same assay, conditions: FIG. 1, measured at 283 nm

Row | Molecule | specific catalytic activity
3 | COc1c(O)c(C)c(CC=C(C)C)c(O)c1OC [Compound Q1H2, ubiquinol-1] | 5.26 ± 0.52 µmol/min/mg
4 | COc1c(O)c(C)c(C/C=C(\C)CCC=C(C)C)c(O)c1OC [Compound Q2H2, ubiquinol-2] | 8.65 ± 2.5 µmol/min/mg
5 | CCCCCCCCCCc1c(C)c(O)c(OC)c(OC)c1O [dQH2, decylubiquinol] | 5.1 ± 0.29 µmol/min/mg

System: Mycobacterium tuberculosis (Mtb) H37Rv
Experiment: MGIT growth inhibition assay, time to positivity
Format: cell-based
Conditions: Table 6; compounds at 5x IC90; drug free control 11; followed to 74 days

Row | Molecule | Time to Positivity
6 | Cc1ccc2nc(C)c(C(=O)NCc3ccc(Oc4ccc(F)cc4)cc3)n2c1 [AWE 402] | 15 days
7 | NNC(=O)c1ccncc1 [INH, Isoniazid] | No effect at 74 days
8 | CO[C@H]1/C=C/O[C@@]2(C)Oc3c(C)c(O)c4c(O)c(c(/C=N/N5CCN(C)CC5)c(O)c4c3C2=O)NC(=O)/C(C)=C\C=C\[C@H](C)[C@H](O)[C@@H](C)[C@@H](O)[C@@H](C)[C@H](OC(C)=O)[C@@H]1C [Rifampicin] | No effect at 74 days

Same assay, conditions: Table 7 / FIG. 9; compounds at 5x IC90; 7.5×10^5 Mtb cells per tube; drug free control 8; followed to 80 days

Row | Molecule | Time to Positivity
9 | NNC(=O)c1ccncc1 [INH, Isoniazid] | No effect

Same assay, conditions: Table 8; WDH-2G-6 3 μM, MTC420 5.5 μM, lansoprazole sulphide 26.5 μM, TMC207 250 nM; media control 10

Row | Molecule | Time to Positivity
10 | Cc1ccc2nc(C)c(C(=O)NCc3ccc(Oc4ccc(F)cc4)cc3)n2c1 [AWE 402] | 13 days
11 | Cc1c(OCC(F)(F)F)ccnc1CSc1nc2ccccc2[nH]1 [Lansoprazole sulphide, lansoprazole sulfide] | 13 days
12 | CC(C)c1c(-c2cnn(Cc3ccc(OC(F)(F)F)cc3)c2)[nH]c2ccccc2c1=O [WDH-2G-6, 3-Isopropyl-2-(1-(4-(trifluoromethoxy)benzyl)-1H-pyrazol-4-yl)quinolin-4(1H)-one] | 10 days

Same assay, conditions: lansoprazole sulfide 26.5 μM, CK-2-63 35 μM; drug-free control 10 days

Row | Molecule | Time to positivity (TtP)
13 | Cc1c(OCC(F)(F)F)ccnc1CSc1nc2ccccc2[nH]1 [Lansoprazole sulphide, lansoprazole sulfide] | 13 days

Target: M. tuberculosis cytochrome bd-I (Mycobacterium tuberculosis, UniProt L7N662)
Experiment: not given
Format: biochemical
Conditions: not given

Sequence of M. tuberculosis cytochrome bd-I (L7N662 1-485): as above

Row | Molecule | inhibition @ 1 uM (% of cntls)
14 | 3-Methyl-2-(1-(4-(trifluoromethoxy)phenethyl)-1H-pyrazol-4-yl)quinolin-4(1H)-one [WDH-2R-4] | 56.2 % of cntls
15 | Cc1c(-c2cccc(Cc3ccc(OC(F)(F)F)cc3)c2)[nH]c2ccccc2c1=O [CK-2-58, 3-Methyl-2-(3-(4-(trifluoromethoxy)benzyl)phenyl)quinolin-4(1H)-one] | 82.3 % of cntls
16 | COc1ccc(Cc2ccc(-c3[nH]c4ccccc4c(=O)c3C)cc2)cc1 [CK-2-96, 2-(4-(4-Methoxybenzyl)phenyI)-3-methylquinolin-4(1H)-one] | 85.7 % of cntls
17 | Cc1c(-c2ccc(Oc3ccc(OC(F)(F)F)cc3)nc2)[nH]c2ccccc2c1=O [CK-3-22, 3-Methyl-2-(6-(4-(trifluoromethoxy)phenoxy)pyridin-3-yl)quinolin-4(1H)-one] | 62.8 % of cntls
18 | O=c1cc(-c2ccc(Cc3ccc(OC(F)(F)F)cc3)cc2)[nH]c2cc(O)c(F)cc12 [CK-3-68, 6-Fluoro-7-hydroxy-2-(4-(4-(trifluoromethoxy)benzyl)phenyl)quinolin-4(1H)-one] | 71.7 % of cntls
19 | Cc1c(-c2ccc(Oc3cccc(OCCN4CCOCC4)c3)cc2)[nH]c2ccccc2c1=O [CK-4-15, 3-Methyl-2-(4-(3-(2-morpholinoethoxy)phenoxy)phenyl)quinolin-4(1H)-one] | 66.6 % of cntls
20 | Cc1c(-c2ccc(OC3CCC(F)(F)CC3)cc2)[nH]c2ccccc2c1=O [PG105, 2-(4-((4,4-Difluorocyclohexyl)oxy)phenyI)-3-methylquinolin-4(1H)-one] | 71.5 % of cntls
21 | Cc1c(-c2ccc(Cc3cccc(OCCN4CCOCC4)c3)cc2)[nH]c2ccccc2c1=O [PG201, 3-Methyl-2-(4-(3-(2-morpholinoethoxy)benzyl)phenyl)quinolin-4(1H)-one] | 68.7 % of cntls
22 | O=c1c(-c2ccc(Oc3ccc(OC(F)(F)F)cc3)cc2)c(CO)[nH]c2ccccc12 [PG208, 2-(Hydroxymethyl)-3-(4-(4-(trifluoromethoxy)phenoxy)phenyl)quinolin-4(1H)-one] | 66.7 % of cntls
23 | Cc1c(-c2ccc(-c3ccc(C(F)(F)F)cc3)nc2)[nH]c2ccccc2c1=O [RKA 142, 3-Methyl-2-(6-(4-(trifluoromethyl)phenyl)pyridin-3-yl)quinolin-4(1H)-one] | >50 % of cntls
24 | COc1cccc2[nH]c(-c3ccc(-c4ccc(OC(F)(F)F)cc4)nc3)c(C)c(=O)c12 [SCR-04-04, 5-Methoxy-3-methyl-2-(6-(4-(trifluoromethoxy)phenyl)pyridin-3-yl)quinolin-4(1H)-one] | 65.4 % of cntls
25 | COc1ccc2[nH]c(-c3ccc(Cc4ccc(OC(F)(F)F)cc4)cc3)c(C)c(=O)c2c1 [SCR-05-03, 6-Methoxy-3-methyl-2-(4-(4-(trifluoromethoxy)benzyl)phenyl)quinolin-4(1H)-one] | 60.9 % of cntls
26 | Cc1c(-c2ccc(Cc3ccc(OC(F)(F)F)cc3)cc2)[nH]c2c(O)cccc2c1=O [SCR-06-03D, 8-Hydroxy-3-methyl-2-(4-(4-(trifluoromethoxy)benzyl)phenyl)quinolin-4(1H)-one] | 73.1 % of cntls
27 | Cc1c(-c2ccc(Cc3ccc(OC(F)(F)F)cc3)cc2)[nH]c2cc(O)ccc2c1=O [SCR-45-01D, 7-Hydroxy-3-methyl-2-(4-(4-(trifluoromethoxy)benzyl)phenyl)quinolin-4(1H)-one] | 81.5 % of cntls
28 | Cc1c(-c2ccc(-c3ccccc3C(F)(F)F)cc2)[nH]c2ccccc2c1=O [SL-2-36, 3-Methyl-2-(2′-(trifluoromethyl)-[1,1′-biphenyl]-4-yl)quinolin-4(1H)-one] | 90.5 % of cntls
29 | Cc1c(-c2ccc(-c3ccccc3F)cc2)[nH]c2ccccc2c1=O [SL-3-3, 2-(2′-Fluoro-[1,1′-biphenyl]-4-yl)-3-methylquinolin-4(1H)-one] | 62.2 % of cntls
30 | CCOC(=O)c1c(-c2ccc(-c3ccc(Cl)cc3)cc2)[nH]c2ccccc2c1=O [WDH-1V-9, Ethyl 2-(4′-chloro-[1,1′-biphenyl]-4-yl)-4-oxo-1,4-dihydroquinoline-3-carboxylate] | 87.5 % of cntls
31 | CCOC(=O)c1c(-c2ccc(-c3ccc(OC(F)(F)F)cc3)cc2)[nH]c2ccccc2c1=O [WDH-1V-10, Ethyl 4-oxo-2-(4′-(trifluoromethoxy)-[1,1′-biphenyl]-4-yl)-1,4-dihydroquinoline-3-carboxylate] | 79.4 % of cntls
32 | CC(C)c1c(-c2cnn(Cc3ccc(OC(F)(F)F)cc3)c2)[nH]c2ccccc2c1=O [WDH-2G-6, 3-Isopropyl-2-(1-(4-(trifluoromethoxy)benzyl)-1H-pyrazol-4-yl)quinolin-4(1H)-one] | 81.6 % of cntls

Same assay, conditions: additional compounds; […]

Row | Molecule | IC50
33 | 3-Methyl-2-(1-(4-(trifluoromethoxy)phenethyl)-1H-pyrazol-4-yl)quinolin-4(1H)-one [WDH-2R-4] | 380 nM

System: M. tuberculosis H37Rv
Experiment: M. tuberculosis H37Rv growth inhibition screen at fixed 5 μM
Format: cell-based, Mycobacterium tuberculosis
Conditions: 5 μM compound

Row | Molecule | Growth of M. tuberculosis H37Rv (aerobic) at 5 μM of [compounds]
34 | Cc1c(-c2ccc(N3CCCCC3)cc2)[nH]c2cc(F)cc(F)c2c1=O [MTD-403, 5,7-Difluoro-3-methyl-2-(4-(piperidin-1-yl)phenyl)quinolin-4(1H)-one] | No growth
35 | COc1ccc2c(=O)c(C)c(-c3ccc(N4CCCCC4)cc3)[nH]c2c1 [RKA-310, 7-methoxy-3-methyl-2-(4-(piperidin-1-yl)phenyl)quinolin-4(1H)-one] | No growth

Same assay, conditions: Mycobacterium tuberculosis, H37RV; aerobic; 5 μM compound; read-out: Growth of M. tuberculosis H37Rv (aerobic) at 5 μM of [compounds]

Row | Molecule | activity at 5 µM
36 | Cc1c(-c2ccc(Oc3ccc(F)cc3)nc2)[nH]c2ccccc2c1=O [CK-3-14, 2-(6-(4-Fluorophenoxy)pyridin-3-yl)-3-methylquinolin-4(1H)-one] | 100%
37 | COc1c(C)c(-c2ccc(Cc3ccccc3)cc2)nc2ccccc12 [CK-3-23, 2-(4-Benzylphenyl)-4-methoxy-3-methylquinoline] | 6.6%
38 | CCOC(=O)c1c(-c2ccc(Cc3ccc(OC(F)(F)F)cc3)cc2)[nH]c2ccccc2c1=O [GN-1710, Ethyl 4-oxo-2-(4-(4-(trifluoromethoxy)benzyl)phenyI)-1,4-dihydroquinoline-3-carboxylate] | 100%
39 | Cc1c(-c2ccc(-c3ccc(C(F)(F)F)nc3)nc2)[nH]c2ccccc2c1=O [PG-128, 3-Methyl-2-(6′-(trifluoromethyl)-[2,3′-bipyridin]-5-yl)quinolin-4(1H)-one] | 95.6%
40 | Cc1[nH]c2ccccc2c(=O)c1-c1ccc(Oc2ccc(OC(F)(F)F)cc2)cc1 [PG-203, 2-Methyl-3-(4-(4-(trifluoromethoxy)phenoxy)phenyl)quinolin-4(1H)-one] | 100%
41 | O=c1cc(-c2ccc(Cc3ccc(OC(F)(F)F)cc3)cc2)n(O)c2ccccc12 [RKA-73, 1-Hydroxy-2-(4-(4-(trifluoromethoxy)benzyl)phenyl)quinolin-4(1H)-one] | 100%
42 | COc1ccc2c(=O)c(C)c(-c3ccc(Oc4ccc(OC(F)(F)F)cc4)nc3)[nH]c2c1 [RKA-259, 7-Methoxy-3-methyl-2-(6-(4-(trifluoromethoxy)phenoxy)pyridin-3-yl)quinolin-4(1H)-one] | 12.6%
43 | Cc1c(-c2ccc(N3CCCCC3)cc2)[nH]c2ccccc2c1=O [RKA-307, 3-Methyl-2-(4-(piperidin-1-yl)phenyl)quinolin-4(1H)-one] | 1.8%
44 | CCOC(=O)c1c(-c2ccc(-c3ccc(Cl)cc3)cc2)[nH]c2ccccc2c1=O [WDH-1U-10, Ethyl 2-(4′-chloro-[1,1′-biphenyl]-4-yl)-4-oxo-1,4-dihydroquinoline-3-carboxylate] | 82.2%
45 | O=c1cc(-c2cnn(Cc3ccc(OC(F)(F)F)cc3)c2)[nH]c2ccccc12 [WDH-1W-5, 2-(1-(4-(Trifluoromethoxy)benzyl)-1H-pyrazol-4-yl)quinolin-4(1H)-one] | 61.3%
46 | Cc1c(-c2cnn(Cc3ccc(OC(F)(F)F)cc3)c2)[nH]c2ccccc2c1=O [WDH-2A-9, 3-Methyl-2-(1-(4-(trifluoromethoxy)benzyl)-1H-pyrazol-4-yl)quinolin-4(1H)-one] | 97.4%
